Four compounds from publication PMC8443647, “Hybrid derivative of cathelicidin and human beta defensin-2 against Gram-positive bacteria: A novel approach for the treatment of bacterial keratitis” (Scientific Reports, 2021) can be followed below.

One series concerns MRSA-OS. As to the kind of experiment: microbe, parasite or virus in culture. In kind it is cell-based, Staphylococcus aureus. The note with it: 24 h. The text has this: (§1) A range of Gram-positive and Gram-negative laboratory- and clinical-strain bacteria were used for the experiments. These included laboratory-strain methicillin-sensitive S. aureus (MSSA; including SH1000 and ATCC SA29213), laboratory-strain MRSA (ATCC MRSA43300), clinical-strain MRSA (MRSA-OS; an IK isolate), laboratory-strain methicillin-sensitive Staphylococcus epidermidis (MSSE; ATCC SE12228), laboratory invasive-strain P. aeruginosa (PAO1-L), and clinical cytotoxic-strain P. aeruginosa (PA-OS; an IK isolate).
(§2) In vitro antimicrobial efficacy of the antibiotics and designed HDPs was determined using an established MIC assay with broth microdilution method approved by the Clinical and Laboratory Standards Institute (CLSI)[64]. Briefly, the microorganisms were cultured on Tryptone Soya Agar (TSA) and incubated overnight for 18–21 h at 37 °C. Bacterial inoculums were subsequently prepared using the direct colony suspension method. Three to five bacterial colonies were obtained from the agar plate and inoculated into an Eppendorf tube containing 1 ml of cation-adjusted Muller-Hinton broth (caMHB), consisting of 20–25 mg/L calcium ions (Ca^2+) and 10–12.5 mg/L magnesium ions (Mg^2+). The bacterial suspension was adjusted to achieve a turbidity equivalent to 0.1 OD600 or 0.5 MacFarland, containing ~ 1.5 × 10^8 colony-forming unit (CFU)/ml, which was then further diluted in 1:150 in caMHB to reach a final bacterial concentration of ~ 1 × 10^6 colony forming units (CFU)/ml. Each treatment (peptide or antibiotic) was prepared in 1:2 serial dilution in 96-well polypropylene microplates (with a final treatment volume of 50 μl per well), followed by the addition of 50 μl of 1 × 10^6 CFU/ml bacteria into each well (with a final bacterial concentration of 5 × 10^5 CFU/ml).

For the next series, the system named is S. aureus SH1000. In words: microbe, parasite or virus in culture. The format is cell-based, Staphylococcus aureus.
From the text: as §1, §2

In another series the test system is P. aeruginosa PAO1-L. As to the kind of experiment: microbe, parasite or virus in culture. In kind it is cell-based.
From the text: as §1, §2

Series [1] relates to human corneal epithelial cells (HCE-2). As to the kind of experiment: cells. The format is cell-based. The note with it: 3 h. The protocol: (§3) Cell viability and cytotoxicity of antibiotics and peptides were determined against human corneal epithelial cells (HCE-2, CRL-11135, ATCC, Manassas, Virginia, USA) using cell-counting-kit-8 (CCK-8) assay (Sigma Aldrich, Merck Life Science UK Limited, Dorset, UK) and lactate dehydrogenase (LDH) assay (ThermoFisher Scientific, UK), respectively, as per manufacturer’s guidelines. HCE-2 cells were cultured and seeded into a 96-well plate at a density of 7.5 × 10^3 cells/well and allowed to attach overnight and grew to 80–90% confluency in keratinocyte serum free medium (KSFM) supplemented with human recombinant epidermal growth factor, bovine pituitary extract, hydrocortisone, and insulin. Once the confluency reached 80–90%, the cells were incubated with treatment for 3 h before OD450 measurement was taken using BMG Clariostar microplate reader (BMG Labtech Ltd., Aylesbury, UK). Appropriate controls were used, including 0.1% Triton X-100 as positive control and KSFM as negative control. Cell viability was calculated using the following formula: [([…]) × 100; I = intensity] and cytotoxicity was calculated using the following formula: [((Itreatment – INC)/(IPC – INC)) × 100].

A short description of a further series: in vitro. The format is cell-based, human. The note with it: human. The protocol: as §3
In series [2] the test system is human corneal epithelial cells (HCE-2). As to the kind of experiment: in vitro. In kind it is cell-based. The protocol:
as §3

Another series has as its system P. aeruginosa PA-OS. As to the kind of experiment: microbe, parasite or virus in culture. The format is cell-based. The note with it: 24 h.
From the text: as §1, §2

For series [3], the system named is Gram-positive or Gram-negative bacteria. As to the kind of experiment: MIC assay, all tested organisms summarised. In kind it is cell-based. The note with it: summary over the organisms tested, without salt.
From the text: as §1
In vitro antimicrobial efficacy of the antibiotics and designed HDPs was determined using an established MIC assay with broth microdilution method approved by the Clinical and Laboratory Standards Institute (CLSI)[64]. Briefly, the microorganisms were cultured on Tryptone Soya Agar (TSA) and incubated overnight for 18–21 h at 37 °C. Bacterial inoculums were subsequently prepared using the direct colony suspension method. Three to five bacterial colonies were obtained from the agar plate and inoculated into an Eppendorf tube containing 1 ml of cation-adjusted Muller-Hinton broth (caMHB), consisting of 20–25 mg/L calcium ions (Ca^2+) and 10–12.5 mg/L magnesium ions (Mg^2+). […]

The mark [4] stands for this setting: 0 mM NaCl, caMHB, read-out: MIC.
Setting [5] is: 0 mM NaCl, caMHB, 24 h, read-out: MIC.
Where [6] appears, read: 0 mM NaCl, caMHB, 24 h, listed as LL-37.

Where two headings read alike, the source gives them in different places. Bridge positions count the residues as written; N and C are the ends. Ends that are not written are not given here. Peptide text beside a SMILES is read from it.

What is called CC50 is the concentration at which the toxic effect on the cells reaches its halfway point. In the case of `CC[C@H](C)[C@H](NC(=O)[C@H](CCCNC(=N)N)NC(=O)[C@H](CCC(N)=O)NC(=O)[C@@H](NC(=O)[C@@H](NC(=O)[C@H](CCCNC(=N)N)NC(=O)[C@@H](N)CCCCN)[C@@H](C)CC)C(C)C)C(=O)N[C@@H](CCCCN)C(=O)N[C@@H](CC(=O)O)C(=O)N[C@@H](Cc1ccccc1)C(=O)N[C@@H](CC(C)C)C(=O)N[C@@H](CCCNC(=N)N)C(=O)N[C@@H](CCCCN)C(=O)N[C@@H](CS)C(=O)N[C@@H](CS)C(=O)N[C@@H](CCCCN)C(=O)N[C@@H](CCCCN)C(=O)N1CCC[C@H]1C(=O)O` [CaD2, KRIVQRIKDF LRKCCKKP] (H-KRIVQRIKDFLRKCCKKP-OH; N-terminus and C-terminus assumed), the MIC was > 200 µg/mL against MRSA-OS (-OS); > 200 µg/mL with S. aureus SH1000 (SH1000, 24 h); > 200 µg/mL against P. aeruginosa PAO1-L (PAO1, 24 h). Moreover, the “IC50 (concentration causing 50% inhibition of cell viability)” value in series [1] was > 200 µg/mL. In addition, in “in vitro”, the CC50 at 3 h is > 200 µg/mL. Besides, the “Lmax (%): percentage of cytotoxicity at 200 µg/ml” value in series [2] is on record as 2.9 (2.2) %.

For `CC[C@H](C)[C@H](NC(=O)[C@H](CCCNC(=N)N)NC(=O)[C@H](CCC(N)=O)NC(=O)[C@@H](NC(=O)[C@@H](NC(=O)[C@H](CCCNC(=N)N)NC(=O)[C@@H](N)CCCCN)[C@@H](C)CC)C(C)C)C(=O)N[C@@H](CCCCN)C(=O)N[C@@H](CC(=O)O)C(=O)N[C@@H](Cc1c[nH]c2ccccc12)C(=O)N[C@@H](CC(C)C)C(=O)N[C@@H](CCCNC(=N)N)C(=O)N[C@@H](CCCCN)C(=O)N[C@@H](CS)C(=O)N[C@@H](CS)C(=O)N[C@@H](CCCCN)C(=O)N[C@@H](CCCCN)C(=O)N1CCC[C@H]1C(=O)O` [CaD22, KRIVQRIKDW LRKCCKKP] (H-KRIVQRIKDWLRKCCKKP-OH; N-terminus and C-terminus assumed), the MIC is > 87.0 µM with MRSA-OS (setting [4]); > 200 µg/mL with MRSA-OS (-OS); 43.5 µM with S. aureus SH1000 (setting [5]); > 87.0 µM with S. aureus SH1000 (150 mM NaCl, caMHB, 24 h, read-out: MIC); 87.0 µM in the series with P. aeruginosa PA-OS (setting [4]); 200 µg/mL against P. aeruginosa PA-OS (PA-OS). Moreover, the MIC in the series with P. aeruginosa PAO1-L (setting [5]) came out at 87.0 µM; with P. aeruginosa PAO1-L (PAO1, 24 h), 200 µg/mL. In addition, in series [1], the “IC50 (concentration causing 50% inhibition of cell viability)” value is > 200 µg/mL. Moreover, the “Imax (%): percentage of inhibition of cell viability at 200 µg/ml” value in series [1] (HCE-2, CCK-8 assay, 200 µg/ml, mean (SD)) is 34.3 (8.2) %.

For `CC[C@H](C)[C@H](NC(=O)[C@H](CCCCN)NC(=O)[C@H](CCC(=O)O)NC(=O)[C@H](CCCCN)NC(=O)[C@H](CO)NC(=O)[C@H](CCCCN)NC(=O)[C@H](CCCNC(=N)N)NC(=O)[C@H](Cc1ccccc1)NC(=O)[C@H](Cc1ccccc1)NC(=O)[C@H](CC(=O)O)NC(=O)CNC(=O)[C@H](CC(C)C)NC(=O)[C@@H](N)CC(C)C)C(=O)NCC(=O)N[C@@H](CCCCN)C(=O)N[C@@H](CCC(=O)O)C(=O)N[C@@H](Cc1ccccc1)C(=O)N[C@@H](CCCCN)C(=O)N[C@@H](CCCNC(=N)N)C(=O)N[C@H](C(=O)N[C@H](C(=O)N[C@@H](CCC(N)=O)C(=O)N[C@@H](CCCNC(=N)N)C(=O)N[C@H](C(=O)N[C@@H](CCCCN)C(=O)N[C@@H](CC(=O)O)C(=O)N[C@@H](Cc1ccccc1)C(=O)N[C@@H](CC(C)C)C(=O)N[C@@H](CCCNC(=N)N)C(=O)N[C@@H](CC(N)=O)C(=O)N[C@@H](CC(C)C)C(=O)N[C@H](C(=O)N1CCC[C@H]1C(=O)N[C@@H](CCCNC(=N)N)C(=O)N[C@H](C(=O)N[C@@H](CCC(=O)O)C(=O)N[C@@H](CO)C(=O)O)[C@@H](C)O)C(C)C)[C@@H](C)CC)C(C)C)[C@@H](C)CC` [LL37, LLGDFFRKSKEKIGKEFKRIVQRIKDFLRNLVPRTES, reference compound], the MIC was 25 µg/mL in the series on MRSA-OS (0 mM NaCl, caMHB); 25 µg/mL against MRSA-OS (0 mM NaCl, caMHB, listed as LL-37); 5.6 µM with MRSA-OS (setting [4]); 25 µg/mL against S. aureus SH1000 (0 mM NaCl, caMHB, 24 h); 25.0 µg/mL in the series on S. aureus SH1000 (setting [6]); 5.6 µM in the series with S. aureus SH1000 (setting [5]). Also, the MIC in the series with P. aeruginosa PAO1-L (0 mM NaCl, caMHB, 24 h) was 50 µg/mL; with P. aeruginosa PAO1-L (setting [6]), 50 µg/mL; in the series on P. aeruginosa PAO1-L (setting [5]), 11.1 µM; in series [3], 25 to 50 µg/mL.

On to “GIGDPVTCLKSGAICHPVFCPRRYKQIGTCGLPGTKCCKKP (disulfide 8-37, 15-30, 20-38 (inferred)) [HBD2, GIGDPVTCLKSGAICHPVFCPRRYKQIGTCGLPGTKCCKKP]”, for which the MIC in series [3] amounted to 100 µg/mL.
